A word on the IC50: it is the concentration at which inhibition is half-maximal. In general, Ki refers to the dissociation constant of the complex between target and ligand, obtained from inhibition or displacement.

The target in the assay is T1, hNpr1 (Homo sapiens, UniProt P16066).
T1 sequence (P16066 33-1061): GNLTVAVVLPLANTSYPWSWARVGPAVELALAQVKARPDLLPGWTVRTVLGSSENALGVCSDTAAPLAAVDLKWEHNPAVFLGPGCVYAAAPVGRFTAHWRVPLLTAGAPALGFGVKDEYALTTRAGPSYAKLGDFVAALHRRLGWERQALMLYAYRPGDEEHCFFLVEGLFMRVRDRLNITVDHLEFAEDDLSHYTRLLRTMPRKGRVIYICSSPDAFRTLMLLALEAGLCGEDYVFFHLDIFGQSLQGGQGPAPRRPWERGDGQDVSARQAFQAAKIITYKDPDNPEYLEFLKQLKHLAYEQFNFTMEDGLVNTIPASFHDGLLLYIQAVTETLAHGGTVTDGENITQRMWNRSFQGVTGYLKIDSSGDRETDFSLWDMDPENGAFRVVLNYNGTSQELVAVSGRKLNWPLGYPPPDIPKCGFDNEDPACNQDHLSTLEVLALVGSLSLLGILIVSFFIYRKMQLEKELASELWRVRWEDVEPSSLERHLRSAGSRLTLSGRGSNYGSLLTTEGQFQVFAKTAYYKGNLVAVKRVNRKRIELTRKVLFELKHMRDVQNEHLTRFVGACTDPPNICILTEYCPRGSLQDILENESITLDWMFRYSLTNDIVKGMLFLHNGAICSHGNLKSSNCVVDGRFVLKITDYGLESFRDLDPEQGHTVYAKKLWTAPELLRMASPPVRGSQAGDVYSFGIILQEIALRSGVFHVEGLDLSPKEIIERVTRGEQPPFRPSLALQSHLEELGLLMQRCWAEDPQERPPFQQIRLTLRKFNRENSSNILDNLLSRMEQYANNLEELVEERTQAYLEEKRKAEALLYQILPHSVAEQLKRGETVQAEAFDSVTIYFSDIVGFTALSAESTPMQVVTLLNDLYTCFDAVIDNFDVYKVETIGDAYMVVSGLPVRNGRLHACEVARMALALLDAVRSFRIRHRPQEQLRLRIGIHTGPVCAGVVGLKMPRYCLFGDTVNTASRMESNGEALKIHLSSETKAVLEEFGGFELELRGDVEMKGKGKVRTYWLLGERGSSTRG
The assay is described as follows: Cell-free hNpr1 membrane cyclase assay (cGMP ELISA). Format: biochemical.

Setting [1] is: Table 1, biochemical assay, read-out: IC50 biochem assay.
Where [2] appears, read: calculated with Cheng-Prusoff equation from Table 4, read-out: Ki hNpr1 cyclase assay [μM] (mean ± SEM).
Where [3] appears, read: membranes of HEK-hNpr1-cGMP-sensor cells, hNppa-stimulated.
Where [4] appears, read: membranes of HEK-hNpr1-cGMP-sensor cells, hNppa-stimulated, read-out: IC50 [μM] (mean ± SEM), membrane cyclase assay.

Read-outs that look alike come from different tables or passages of the source.

Turning to `CCC(CC)c1cc([C@H]2CN3CC[C@H]2C[C@@H]3CNS(=O)(=O)c2cccs2)nc(-c2ccncc2)n1` [JS-3, N-(((2R,4S,5R)-5-(6-(pentan-3-yl)-2-(pyridin-4-yl)pyrimidin-4-yl)quinuclidin-2-yl)methyl)thiophene-2-sulfonamide], the IC50 under setting [1] was 3.98 µM and the half-inhibitory concentration (IC50) under setting [4] is 4 ± 1.2 µM. Also, the Ki under setting [2] is 0.58 ± 0.179 µM. Moreover, the “Imax [%] (mean ± SEM), membrane cyclase assay” value (shortened to “Imax [%] (mean ± SEM)”) under setting [3] was −98.2 ± 1.8%.
For `COc1cc(CN2CCC(C)(NC(C)=O)CC2)cc(-c2ccncc2)c1` [JS-4, N-(1-(3-methoxy-5-(pyridin-4-yl)benzyl)-4-methylpiperidin-4-yl)acetamide] the same measures were 2.2 µM, 2.8 ± 0.04 µM, 0.41 ± 0.006 µM and −96.1 ± 3.7%.
On the same counts, the results for `Cc1noc(C)c1-c1cc(-c2ccccc2Oc2ccccc2)cn2cncc12` [JS-5, 3,5-dimethyl-4-(6-(2-phenoxyphenyl)imidazo[1,5-a]pyridin-8-yl)isoxazole] are 0.141 µM, 0.1 ± 0.1 µM, 0.02 ± 0.02 µM and −99.8 ± 0.1%.
With `COc1ccccc1-c1n[nH]c2ncc(C(=O)NCc3cccnc3)nc12` [JS-6, 3-(2-methoxyphenyl)-N-(pyridin-3-ylmethyl)-1H-pyrazolo[3,4-b]pyrazine-5-carboxamide], the IC50 was 0.766 µM under setting [1] and 0.8 ± 1.9 µM under setting [4]. Besides, the Ki under setting [2] is 0.11 ± 0.275 µM. Further, under setting [3], the “Imax [%] (mean ± SEM)” value is −99.4 ± 0.5%.
With `O=C(NCc1cccnc1)c1cnc2[nH]nc(-c3ccccc3)c2n1` [JS-7, 3-phenyl-N-(pyridin-3-ylmethyl)-1H-pyrazolo[3,4-b]pyrazine-5-carboxamide], the IC50 runs as follows: under setting [1], 0.122 µM; under setting [4], 0.1 ± 0.3 µM. For the same compound, the inhibitory constant (Ki) under setting [2] was 0.02 ± 0.044 µM. The “Imax [%] (mean ± SEM)” value under setting [3] is recorded as −98.4 ± 1.5%.
For `Cc1nn2c(c1-c1ccccc1OCc1ccccc1)N(C(=O)Cc1ccc3c(c1)OCO3)CCC2` [JS-8, 2-(benzo[d][1,3]dioxol-5-yl)-1-(3-(2-(benzyloxy)phenyl)-2-methyl-6,7-dihydropyrazolo[1,5-a]pyrimidin-4(5H)-yl)ethan-1-one] the same measures were 0.336 µM, 0.3 ± 0.4 µM, 0.05 ± 0.064 µM and −98.0 ± 2.0%.
On the same counts, the results for `Cc1nn2c(c1-c1ccccc1OCc1ccccc1)N(C(=O)Cc1ccccn1)CCC2` [JS-9, 1-(3-(2-(benzyloxy)phenyl)-2-methyl-6,7-dihydropyrazolo[1,5-a]pyrimidin-4(5H)-yl)-2-(pyridin-2-yl)ethan-1-one] are 2.17 µM, 2.2 ± 1.8 µM, 0.32 ± 0.262 µM and −95.3 ± 4.5%.
As to `Cc1nn2c(c1-c1ccccc1Oc1ccccc1)N(C(=O)Cc1ccc3c(c1)OCO3)CCC2` [JS-10, 2-(benzo[d][1,3]dioxol-5-yl)-1-(2-methyl-3-(2-phenoxyphenyl)-6,7-dihydropyrazolo[1,5-a]pyrimidin-4(5H)-yl)ethan-1-one], the IC50 came to 0.744 µM under setting [1] and 0.7 ± 0.6 µM under setting [4]. Moreover, the Ki under setting [2] is 0.11 ± 0.09 µM. In addition, under setting [3], the “Imax [%] (mean ± SEM)” value was −95.2 ± 3.3%.
On the same counts, the results for `Cc1cc(CNC(=O)c2ccc3c(c2)n(CC2CC2)c(=O)n3C2CCCCC2)on1` [JS-11, 1-cyclohexyl-3-(cyclopropylmethyl)-N-((3-methylisoxazol-5-yl)methyl)-2-oxo-2,3-dihydro-1H-benzo[d]imidazole-5-carboxamide] are 1.14 µM, 1.4 ± 0.1 µM, 0.21 ± 0.008 µM and −99.7 ± 0.2%.
The compound `COc1ccc(C2(C(=O)N3CCC4(CC3)c3nccn3-c3ccccc3CN4C)CC2)cc1` [JS-12, (1-(4-methoxyphenyl)cyclopropyl)(5-methyl-5,6-dihydrospiro[benzo[f]imidazo[1,2-a][1,4]diazepine-4,4′-piperidin]-1′-yl)methanone] yielded a Ki of 0.1 ± 0.015 µM. For the same compound, where the note is “IC50 [μM] (mean ± SEM), membrane cyclase assay, membranes of HEK-hNpr1-cGMP-sensor cells, hNppa-stimulated”, it took 0.7 ± 0.1 µM to reach half-maximal inhibition (IC50). The IC50 (IC50 biochem assay (M), Table 1, biochemical assay) stood at 0.614 µM. The “Imax [%] (mean ± SEM)” value under setting [3] was −99.0 ± 1.0%.
With `N#Cc1ccccc1CN1CCCC(C(=O)NCc2ccccc2)CCNC(=O)CC1` (stereo not drawn) [JS-13, N-benzyl-1-(2-cyanobenzyl)-4-oxo-1,5-diazacycloundecane-8-carboxamide], the IC50 reads like this: under setting [1], 1.19 µM; under setting [4], 0.8 ± 0.9 µM. In addition, the Ki under setting [2] is 0.12 ± 0.13 µM. Moreover, under setting [3], the “Imax [%] (mean ± SEM)” value is reported as −94.4 ± 5.4%.
For `CN(Cc1ccccc1)C(=O)c1cn2ccnc(-c3ccccc3)c2n1` [JS-14, N-benzyl-N-methyl-8-phenylimidazo[1,2-a]pyrazine-2-carboxamide] the same measures were 18.6 µM, 12.7 ± 4.9 µM, 1.87 ± 0.723 µM and −99.0 ± 0.0%.
